Experimental data published in patent US7432051B2, “Erythropoietin and erythropoietin receptor expression in human cancer” (The Henry M. Jackson Foundation for the Advancement of …, priority 2000, dated 2008).

Legend:
U251 cells [1] = assay: Hypoxia-sensing response (HIF-1α immunoblot, HIF-1 gelshift, RT-PCR and Western blot for Epo/EpoR); assay type: cell-based, human; conditions: 150 μM DFX, six-hour treatment
Procedure: Human glioma cell lines (ATCC) and normal human astrocytes (Clonetics) were cultured in Eagle's MEM medium supplemented with 10% fetal bovine serum, and 1% (v/v) penicillin/streptomycin. The cells were grown to 90% confluence in 10 cm culture dishes. For hypoxia treatment, the culture dishes were sealed in modulator incubator chamber, flushed with gas containing 1% oxygen, 5% carbon dioxide, 94% nitrogen for five minutes, and incubated at 37° C. for four to six hours. For desferrioxamine (DFX) treatment, the cells were cultured with same medium containing […] DFX and incubated in cell culture incubator. Paraffin sections (5 μm) of the human GBMs were prepared and stained by immunohistochemistry methods as described previously (Acs et al. (2001) Cancer Res. 61, 3561-3565).
(§1) After the treatments to the cell culture dishes described in Example 10, the cells were washed once with 10 ml cold Dulbecco's phosphate-buffered saline (PBS), scraped into 1.5 ml of PBS on ice, and pelleted by centrifugation at 2,000 rpm for three minutes at 4° C. Cell pellets were washed once with 5 packed cell volumes of buffer A (10 mM Tris-HCl (pH 7.5), 1.5 mM magnesium chloride, 10 mM KCl), freshly supplemented with Complete, EDTA-free Protease Inhibitor Cocktail (Roche) and 2 mM dithiothreitol (DTT)), and resuspended in four packed cell volumes of buffer A. After incubation on ice for 10 min, cell suspension was homogenized with thirty strokes in a glass douncer (Wheaton) with type-b pestle. Nuclei were pelleted at 1,000 rpm for ten minutes and resuspended in four packed nuclear volumes of buffer C (20 mM Tris-HCl (pH 7.5), 0.42 M KCl, 1.5 mM magnesium chloride, 20% glycerol, freshly supplemented with Complete, EDTA-free Protease Inhibitor Cocktail (Roche) and 2 mM DTT), and rotated for thirty minutes at 4° C. After centrifugation at 1,400 rpm for thirty minutes, the nuclear extracts were aliquoted and stored at −80° C. Protein concentration was determined by the method of Bradford with a commercial kit (Bio-Rad) using bovine serum albumin as standard. HIF-1α protein was detected by immunoblot analysis. Twenty five to thirty μg of nuclear extracts were boiled for five minutes in 2× denaturing buffer, and loaded onto SDS-7% polyacrylamide gels. After transfer, membranes were blocked with 5% milk in TBST (10 mM Tris-HCl, 150 mM NaCl, 0.1% Tween, pH 7.8) for one and a half hours at room temperature and subsequently incubated with mouse monoclonal HIF-1α antibody (Transduction Labs) for two hours. The membranes were washed with TBST three times and incubated with horseradish peroxidase-conjugated secondary antibody. Then, the membranes were washed three times with TBST and analyzed by enhanced chemiluminescence (Pierce). Analysis of EpoR and phosphotyrosine immunoreactivity was performed as reported previously (Acs et al. (2001) Cancer Res. 61, 3561-3565).
Oligonucleotide probe was generated by 5′ end labeling of the sense strand with gamma-[^32P]ATP (Dupont-NEN) and T4 polynucleotide kinase (Gibco-BRL), annealing to a ten-fold excess of antisense strand, and purification by using NucTrap Probe Purification Column (Stratagene). Binding reactions were carried out in a total volume of 20 μl containing 7.0 μg of nuclear extract and 0.2 μg of calf thymus DNA in buffer Z (20 mM Tris-HCl (pH 7.5), 0.1 M KCl, 0.2 mM EDTA, 20% glycerol, freshly supplemented with 2 mM DTT, 0.4 mM PMSF and 1 mM Na3PO4). […]

U251 cells [2] = assay: Chemotherapeutic drug toxicity, cell survival by MTT assay; assay type: cell-based, human; conditions: serum-free media
Procedure: (§2) U251 cells were grown in 96-well culture dishes to approximately 85% confluence. Serum was withdrawn overnight and 10 μM Cisplatin was added for twenty-four hours. […] Control groups underwent similar serum withdrawal but no Cisplatin exposure. Where indicated rhEpo or Epoetin-alfa was added thirty minutes prior to the addition of cisplatin. Serum withdrawal studies involved assessment of cell survival forty-eight hours following change to serum-free media. […] Where indicated, Epoetin-alfa, tyrosine kinase inhibitors or PI3K inhibitors were added at the time of change to serum-free media. The Student's T-test was used to determine statistically significant differences between treatment groups.

BT-549 cells = assay: 3H-thymidine incorporation assay of DNA synthesis; assay type: cell-based, human
Procedure: (§3) To determine whether Epo exerts trophic effects on breast cancer cell lines, the effect of exogenously added Epo on DNA synthesis was examined in MCF-7 and BT-549 cells. DNA synthesis was measured using a ^3H-thymidine incorporation assay. Breast cancer cells plated in six well plates in one ml DMEM supplemented with 20% fetal bovine serum per well were allowed to incubate for sixteen hours. Cells were switched to one ml phenol-free DMEM at the time of treatments. recombinant human Epo (rhEpo) (10 units), or either anti-Epo or anti-EpoR antibodies ([…]) was then added directly to the medium and the cells cultured for another sixteen hours. Thymidine labeling was performed by adding one […] (NEN Life Sciences) for one hour and DNA associated counts were then determined by liquid scintillation as described (Assandri et al. (1999) J. Physiol. 516, 343-352).

MCF-7 cells [3] = assay: 3H-thymidine incorporation assay of DNA synthesis; assay type: cell-based, human
Procedure: as §3

MCF-7 cells [4] = assay: Western blot of phosphotyrosine containing proteins; assay type: cell-based, human; conditions: five minute incubation; 250 units/ml rhEpo or 10 μM Epo mimetic peptide
U251 cells [5] = assay: Western blot of EpoR associated signaling (tyrosine phosphorylation, Jak-2, STAT-5, Akt); assay type: cell-based, human
Procedure: as §1
Using the Western blotting techniques described in Example 11 above, the immunoreactive EpoR expressed in human gliomas was further tested to see if it was functional. Cultured U251 cells were stimulated with recombinant human erythropoietin. […] Tyrosine phosphorylation could also be elicited by an Epo-mimetic peptide (EMP) and by Epoetin-alfa, the clinically used form of Epo (FIG. 11B). Using phospho-specific antibodies, we also detected rhEpo stimulated Jak-2 and STAT-5 tyrosine phosphorylation as well as phosphorylation of Akt (FIG. 12C).

[6] = system: cell lines derived from a wide range of tumors including two breast cancer cell lines; conditions: in particular low doses of erythropoietin; cited from earlier work
U251 cells [7] = assay: Serum withdrawal cell survival; assay type: cell-based, human; conditions: inhibitor added at change to serum-free media, forty-eight hours
Procedure: as §2

[8] = 10 units/ml exogenous rhEpo, p<0.01
[9] = rhEpo (10 units) in one ml medium, sixteen hours, p<0.01

## CC(=O)N(O)CCCCCNC(=O)CCC(=O)N(O)CCCCCNC(=O)CCC(=O)N(O)CCCCCN [DFX, desferrioximine]
U251 cells [1]
  Epo mRNA expression (RT-PCR): prominent induction
  EpoR mRNA expression (RT-PCR): not induced
  HIF-1 gelshift activity: dramatically upregulating
  immunoreactive EpoR protein levels: enhanced
  level of HIF-1α protein: dramatically upregulating

## N.N.[Cl][Pt][Cl] [Cisplatin, reference compound]
U251 cells [2]; 10 μM Cisplatin, overnight / twenty-four hours
  cells killed (cell death): approximately 80%
U251 cells [2]; Cisplatin overnight
  survival fraction: 0.2

## rhEpo: recombinant human Epo (rhEpo), R & D systems
BT-549 cells; [8]
  enhancement of 3H-thymidine incorporation: about 25%
BT-549 cells; rhEpo 100 units/ml (FIG. 2)
  3H-thymidine incorporation, effect in words: enhanced
BT-549 cells; [9]
  potentiation of DNA synthesis: approximately 20%
MCF-7 cells [3]; [8]
  enhancement of 3H-thymidine incorporation: about 25%
MCF-7 cells [3]; rhEpo 100 units/ml (FIG. 2)
  3H-thymidine incorporation, effect in words: enhanced
MCF-7 cells [3]; [9]
  potentiation of DNA synthesis: approximately 20%
MCF-7 cells [4]
  levels of phosphotyrosine containing proteins versus basal: markedly enhanced
U251 cells [5]; phospho-specific antibodies
  Jak-2 tyrosine phosphorylation: stimulated
  STAT-5 tyrosine phosphorylation: stimulated
  phosphorylation of the PI3K substrate Akt: stimulated
U251 cells [5]; serum free media, rhEpo 10 U/ml single dose, EMP and Epoetin-alfa thirty minute treatments
  tyrosine phosphorylation in several proteins: prominent, rapid, and long lasting activation
U251 cells [5]; single dose 10 U/ml rhEpo
  duration of tyrosine phosphorylation: more than two hours
  onset of tyrosine phosphorylation: within one minute
[6]
  stimulation of cancer cell proliferation: no significant stimulation

## O=c1c(-c2ccc(O)cc2)coc2cc(O)cc(O)c12 [Genistein, reference compound]
U251 cells [7]
  effect on the protective effect of Epoetin-alfa: blocked
